Target: T1, ITK (Mus musculus, UniProt Q03526)
T1 construct: administered to mice orally; from tissue; host or cells: mouse splenocytes (spleen) after oral dosing
T1 sequence (Q03526 1-625): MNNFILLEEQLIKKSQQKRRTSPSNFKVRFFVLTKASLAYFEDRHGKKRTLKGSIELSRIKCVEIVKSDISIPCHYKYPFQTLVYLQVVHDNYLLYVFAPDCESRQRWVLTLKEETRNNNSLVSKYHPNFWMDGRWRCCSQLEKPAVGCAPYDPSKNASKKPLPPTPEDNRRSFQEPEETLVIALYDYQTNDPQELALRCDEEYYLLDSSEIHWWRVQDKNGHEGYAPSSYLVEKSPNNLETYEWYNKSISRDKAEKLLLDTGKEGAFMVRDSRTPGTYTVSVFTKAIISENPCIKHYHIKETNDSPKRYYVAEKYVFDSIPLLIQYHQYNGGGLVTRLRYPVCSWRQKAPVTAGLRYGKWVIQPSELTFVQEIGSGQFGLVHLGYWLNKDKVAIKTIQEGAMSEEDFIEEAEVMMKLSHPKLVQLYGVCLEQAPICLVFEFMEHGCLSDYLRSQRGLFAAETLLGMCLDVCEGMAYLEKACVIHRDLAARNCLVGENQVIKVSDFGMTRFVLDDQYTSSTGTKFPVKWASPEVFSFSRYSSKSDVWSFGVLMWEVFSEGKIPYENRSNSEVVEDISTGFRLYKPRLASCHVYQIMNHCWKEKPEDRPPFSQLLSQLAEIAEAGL
Assay: Western Assay for ITK Degradation in Mouse Splenocytes after oral administration
Format: in vivo
Conditions: for ITK degradation in vivo by Western blotting: mouse splenocytes, oral
Description: Compounds 30 and 31 were administered to mice orally. After 6 hours, splenocytes cells were harvested. ITK was evaluated by Western blotting. Media was removed and cell pellets were lysed in 100 μL lysis buffer (RIPA buffer (Fisher, PI89901), cOmplete Mini EDTA-free protease inhibitor (Sigma 11836170001), Protease Inhibitor Cocktail (Sigma, P2714), Phosphatase Inhibitor Cocktail 2 and 3 (Sigma, P5726 and P0044), Benzonase (Sigma, E1014)). Cells were lysed overnight at −20° C. Following thaw, cells were centrifuged for 10 min at 13000 rpm, then transferred to new tube. Protein levels were determined by BCA Assay performed according to manufacturer's protocol (EMD Millipore, cat. no. 71285-3). Samples were combined with (4×) LDS Sample Buffer and (10×) Reducing Agent and H2O to equally load 20 μg protein per lane of a 26-well NuPAGE 4-12% Bis-Tris protein gel (1.0 mm, Thermo cat. no. NP0326). Samples were separated by running gels at constant 150 V in NuPAGE MES SDS Running Buffer. Following electrophoresis, proteins were transferred to nitrocellulose membranes using an iBlot Gel Transfer Device and iBlot Gel Transfer Stacks (Thermo cat. no. IB21001 and IB301001) and transfer method P3 (20V for 7 min). Membranes were blocked for 1 hr in 5% milk solution (TBS (0.2% Tween-20)). Following blocking, membranes were incubated with primary antibody (1:1000 CST ITK (2F12) #2380) overnight at 4° C. with gentle shaking. Blots were washed 2× in TBS (0.2% Tween-20), 30 min per wash. Following washes, blots were incubated in secondary HRP-conjugated antibody (Promega anti-Mouse IgG (H+L) HRP cat. no. W4021), 1:5000 in 5% milk solution (TBS (0.2% Tween-20)), for 1 hr at room temperature with gentle shaking. Blots were washed 2× in TBS (0.2% Tween-20), 30 min per wash. Blots were incubated with 1:1 mix of ECL reagents 1 & 2 (Amersham ECL Western Blotting Detection Reagent, cat. no. RPN2106) for 2 min at room temperature. Bands were visualized using a Protein Simple imager. Blots were then re-probed with a combination of anti-actin antibody (Sigma Monoclonal Mouse Anti-β-Actin (clone AC-15), cat. no. A5441) and secondary HRP-conjugated antibody (Promega anti-Mouse IgG (H+L) HRP, cat. no. W4021) and similar steps were taken for incubation, wash, detection and visualization steps as above. The data was analyzed using Alpha View software. The densitometric reading for each sample band was normalized to that of the corresponding actin band per lane. Approximate % ITK remaining per sample was calculated as follows: […]
Once % ITK remaining has been calculated for each sample, groups are averaged together to show an means % ITK normalized to actin and relative to control.
Compounds 30 and 29 were administered to mice orally. After 6 hours or 24 hours, splenocytes cells were harvested. ITK was evaluated by Western blotting. Plasma concentrations were determined by LC/MS/MS. Plasma samples were protein precipitated by addition of 100 μl of acetonitrile containing 50 ng/ml of internal standard. The resulting mixture was vortexed and centrifuged at 4000 RPM for 5 minutes. An aliquot of the resultant supernatant (75 μl) was added to 75 μl of 0.1% formic acid in water to constitute the final sample for injection. Samples were injected on a Shimadzu Exion LC Binary Gradient AD Pump HLPC system connected to a Sciex QTRAP 6500+ mass spectrometer. Five μl of sample was injected onto a Waters Acquity UPLC BEH C18 column 130A (2.1×30 mm, […]) at 40° C. utilizing a flow rate of 700 μl/minute. Mobile Phase A was 0.1% formic acid in water and mobile phase B was 0.1% formic acid in acetonitrile. A linear gradient of 15-95% B over 1.0 minute was used. The mass spectrometer was operated in positive ion electrospray mode with multiple reaction monitoring for maximum sensitivity. Sciex Analyst software (version 1.6.3) was used for LC/MS/MS instrument control and acquisition. […]

[1] = % ITK remaining in mouse splenocytes, 90 mpk PO
[2] = % ITK remaining in mouse splenocytes, 24 h

SMILES	ITK (%) 90 mpk PO, 6 h [1] [%]	also measured
C[C@@H](C(=O)N(C)c1ccc2cc(-c3n[nH]c4c3C[C@@H]3C(F)(F)[C@]3(C)C4)[nH]c2c1)N1CCN(CC2CCN(c3ccc(N4CCC(=O)NC4=O)cn3)CC2)CC1 [Compound 29, (S)—N-(2-((4aS,5aR)-5,5-difluoro-5a-methyl-1,4,4a,5,5a,6-hexahydrocyclopropa[f]indazol-3-yl)-1H-indol-6-yl)-2-(4-((1-(5-(2,4-dioxotetrahydropyrimidin-1(2H)-yl)pyridin-2-yl)piperidin-4-yl)methyl)piperazin-1-yl)-N-methylpropanamide]	14	ITK degradation in vivo by Western blotting (6 hours): degraded ITK in vivo; ITK degradation in vivo by Western blotting (24 hours): degraded ITK
C[C@@H](C(=O)N(C)c1ccc2cc(-c3n[nH]c4c3CCC(C)(C)C4)[nH]c2c1)N1CCN(CC2CCN(c3ccc(C4CCC(=O)NC4=O)cn3)CC2)CC1 (stereo partly drawn) [Compound 32, (2S)—N-(2-(6,6-dimethyl-4,5,6,7-tetrahydro-1H-indazol-3-yl)-1H-indol-6-yl)-2-(4-((1-(5-(2,6-dioxopiperidin-3-yl)pyridin-2-yl)piperidin-4-yl)methyl)piperazin-1-yl)-N-methylpropanamide]	11	–
CC1(C)CCc2c(-c3cc4ccc(C(=O)N5CCN(CC6CCN(c7ccc(C8CCC(=O)NC8=O)cc7)CC6)CC5)cc4[nH]3)n[nH]c2C1 (centres unmarked) [Compound 38, 3-(4-(4-((4-(2-(6,6-dimethyl-4,5,6,7-tetrahydro-1H-indazol-3-yl)-1H-indole-6-carbonyl)piperazin-1-yl)methyl)piperidin-1-yl)phenyl)piperidine-2,6-dione]	14	ITK (%) 90 mpk PO, 24 h (% ITK remaining in mouse splenocytes, 90 mpk PO, 24 h): 14%
CN(C(=O)CC1CCN(CC2CCN(c3ccc(C4CCC(=O)NC4=O)cn3)CC2)CC1)c1ccc2cc(-c3n[nH]c4c3C[C@@H]3C(F)(F)[C@]3(C)C4)[nH]c2c1 (stereo partly drawn) [Compound 6, N-(2-((4aS,5aR)-5,5-difluoro-5a-methyl-1,4,4a,5,5a,6-hexahydrocyclopropa[f]indazol-3-yl)-1H-indol-6-yl)-2-(1-((1-(5-(2,6-dioxopiperidin-3-yl)pyridin-2-yl)piperidin-4-yl)methyl)piperidin-4-yl)-N-methylacetamide]	92	–
CC1(C)CCc2c(-c3cc4ccc(C(=O)N5CCC(CN6CCN(c7ccc(C8CCC(=O)NC8=O)nc7)CC6)CC5)cc4[nH]3)n[nH]c2C1 (centres unmarked) [Compound 35, 3-(5-(4-((1-(2-(6,6-dimethyl-4,5,6,7-tetrahydro-1H-indazol-3-yl)-1H-indole-6-carbonyl)piperidin-4-yl)methyl)piperazin-1-yl)pyridin-2-yl)piperidine-2,6-dione]	–	ITK (%) 60 mpk PO, 24 h [2]: >100%
CN(C(=O)CCC1CCN(c2ccc(C3CCC(=O)NC3=O)cn2)CC1)c1ccc2cc(-c3n[nH]c4c3C[C@@H]3C(F)(F)[C@]3(C)C4)[nH]c2c1 (stereo partly drawn) [Compound 4, N-(2-((4aS,5aR)-5,5-difluoro-5a-methyl-1,4,4a,5,5a,6-hexahydrocyclopropa[f]indazol-3-yl)-1H-indol-6-yl)-3-(1-(5-(2,6-dioxopiperidin-3-yl)pyridin-2-yl)piperidin-4-yl)-N-methylpropanamide]	76	–
CC1(C)CCc2c(-c3cc4ccc(N5CCC6(CCN(CC7CCN(c8ccc(C9CCC(=O)NC9=O)cn8)CC7)CC6)C5=O)cc4[nH]3)n[nH]c2C1 (centres unmarked) [Compound 24, 3-(6-(4-((2-(2-(6,6-dimethyl-4,5,6,7-tetrahydro-1H-indazol-3-yl)-1H-indol-6-yl)-1-oxo-2,8-diazaspiro[4.5]decan-8-yl)methyl)piperidin-1-yl)pyridin-3-yl)piperidine-2,6-dione]	45	–
CC1(C)CCc2c(-c3cc4ccc(C(=O)N5CCC(CN6CCC(c7ccc(C8CCC(=O)NC8=O)cc7)CC6)CC5)cc4[nH]3)n[nH]c2C1 (centres unmarked) [Compound 39, 3-(4-(1-((1-(2-(6,6-dimethyl-4,5,6,7-tetrahydro-1H-indazol-3-yl)-1H-indole-6-carbonyl)piperidin-4-yl)methyl)piperidin-4-yl)phenyl)piperidine-2,6-dione]	–	ITK (%) 60 mpk PO, 24 h [2]: 93%
C[C@@]12Cc3[nH]nc(-c4cc5ccc(N6CCC7(CCN(CC8CCN(c9ccc(C%10CCC(=O)NC%10=O)cn9)CC8)CC7)C6=O)cc5[nH]4)c3C[C@@H]1C2(F)F (stereo partly drawn) [Compound 28, 3-(6-(4-((2-(2-((4aS,5aR)-5,5-difluoro-5a-methyl-1,4,4a,5,5a,6-hexahydrocyclopropa[f]indazol-3-yl)-1H-indol-6-yl)-1-oxo-2,8-diazaspiro[4.5]decan-8-yl)methyl)piperidin-1-yl)pyridin-3-yl)piperidine-2,6-dione]	8	–
CC1(C)CCc2c(-c3cc4ccc(C(=O)N5CCN(CC6CCN(c7ccc(C8CCC(=O)NC8=O)cn7)CC6)CC5)cc4[nH]3)n[nH]c2C1 (centres unmarked) [Compound 26, 3-(6-(4-((4-(2-(6,6-dimethyl-4,5,6,7-tetrahydro-1H-indazol-3-yl)-1H-indole-6-carbonyl)piperazin-1-yl)methyl)piperidin-1-yl)pyridin-3-yl)piperidine-2,6-dione]	11	–
C[C@@H](C(=O)N(C)c1ccc2cc(-c3n[nH]c4c3CCC(C)(C)C4)[nH]c2c1)N1CCN(CC2CCN(c3ccc(N4CCC(=O)NC4=O)cn3)CC2)CC1 [Compound 31, (S)—N-(2-(6,6-dimethyl-4,5,6,7-tetrahydro-1H-indazol-3-yl)-1H-indol-6-yl)-2-(4-((1-(5-(2,4-dioxotetrahydropyrimidin-1(2H)-yl)pyridin-2-yl)piperidin-4-yl)methyl)piperazin-1-yl)-N-methylpropanamide]	116	ITK degradation in vivo by Western blotting (6 hours): degraded ITK in vivo; ITK degradation in vivo by Western blotting (24 hours): degraded ITK in vivo
CC1(C)CCc2c(-c3cc4ccc(C(=O)N5CCC(CN6CCN(c7ccc(C8CCC(=O)NC8=O)cc7)CC6)CC5)cc4[nH]3)n[nH]c2C1 (centres unmarked) [Compound 37, 3-(4-(4-((1-(2-(6,6-dimethyl-4,5,6,7-tetrahydro-1H-indazol-3-yl)-1H-indole-6-carbonyl)piperidin-4-yl)methyl)piperazin-1-yl)phenyl)piperidine-2,6-dione]	–	ITK (%) 60 mpk PO, 24 h [2]: >100%
